Measurements published in publication PMC7433010, “Exploration of multi‐target effects of 3‐benzoyl‐5‐hydroxychromen‐2‐one in Alzheimer’s disease cell and mouse models” (Aging Cell, 2020).
Where two headings read alike, the source gives them in different places.

Key:
[1] = MTT cytotoxicity in uninduced retinoic acid‐differentiated SH‐SY5Y cells; format: cell-based; conditions: human
Procedure: (§1) Licochalcone A and five derivative LM compounds were tested (Figure 1a). All six compounds were soluble up to 100 μM in a cell culture medium (Figure S1a). Based on molecular weight (MW), hydrogen bond donors (HBD), hydrogen bond acceptors (HBA), and calculated octanol/water partition coefficient (cLogP), all six compounds meet Lipinski's criteria in predicting oral bioavailability (Lipinski, Lombardo, Dominy, & Feeney, 1997) (Figure S1b). […] To choose the optimal treatment dose used for the best efficacy of the candidate compounds, a specific type of biphasic dose response of a compound called hormesis should take into consideration. Evidence has shown that a wide range of pharmaceutical products display a hermetic dose‐response feature, characterized by a low‐dose stimulation and a high‐dose inhibition (Calabrese et al., 2018; Concetta Scuto et al., 2019; Pilipenko et al., 2019). Therefore, we tested the compounds at a range of doses to find the optimal dose for the best therapeutic effect and the least cytotoxicity. Firstly, MTT assay was performed using uninduced ∆K280 TauRD‐DsRed 293 and retinoic acid‐differentiated SH‐SY5Y cells following treatment with the test compounds (0.1–10 μM) for 3 (for 293 cells) or 7 (for SH‐SY5Ycells) days. […] Congo red is an amyloidogenic dye known to reduce Aβ neurotoxicity (Lorenzo & Yankner, 1994).
(§2) Licochalcone A was purchased from Sigma-Aldrich, St. Louis, MO, USA. In-house LM compounds were synthesized and characterized by NMR spectrum as described (Lee et al., 2012, 2015, 2018). Tet-On ∆K280 TauRD-DsRed 293 and SH-SY5Y cells (Chang et al., 2016) were cultured in Dulbecco’s modified Eagles medium (DMEM) (293) or DMEM-F12 (SH-SY5Y) containing 10% fetal bovine serum (Invitrogen, Carlsbad, CA, USA), 5 μg/ml of blasticidin, and 100 μg/ml of hygromycin (InvivoGen, San Diego, CA, USA). Compound cytotoxicity was assessed by colorimetric assay for measuring cell metabolic activity. Briefly, 5 × 10^4 cells were plated (48-well plates), grown for 20 h, and treated with the test compounds ([…]). […], 20 µl of 3-(4,5-dimethylthiazol-2-yl)-2,5-diphenyltetrazolium bromide (MTT, 5 mg/ml in PBS; Sigma-Aldrich) was added to the cells and incubated at 37°C for 3 h. Then 200 µl of lysis buffer (10% Triton X-100, 0.1 N HCl, 18% isopropanol) was added and the absorbance of the insoluble product at OD 570 nm was measured by a microplate reader (FLx800 fluorescence microplate reader, Bio-Tek, Winooski, VT, USA). The half-maximal inhibitory concentration (IC50) was calculated using the interpolation method.
(§3) Figure S1. Test compounds. (a) Solubility (in cell culture medium) of test compounds. (b) Molecular weight (MW), hydrogen bond donor (HBD), hydrogen bond acceptor (HBA), calculated octanol-water partition coefficient (cLogP), polar surface area (PSA), and predicted blood-brain barrier (BBB) score of test compounds. (c) Cytotoxicity of test compounds against ∆K280 TauRD-DsRed 293 and SH-SY5Y cells using the MTT assay. Uninduced 293 cells were plated on day 1 and treated with 0.1–10 μM test compounds on day 2. Cell viability was measured on day 5 (n = 3). In addition, uninduced SH-SY5Y cells were seeded with all trans retinoic acid (RA; 10 µM) on day 1 and treated with 0.1–10 μM test compounds on day 2. Cell viability was measured on day 9 (n = 3). To normalize, the relative viability in compound untreated cells was set at 100%. IC50 values are listed.

[2] = MTT cytotoxicity in uninduced ∆K280 TauRD‐DsRed 293 cells; format: cell-based; conditions: human
Procedure: as §1, §2, §3

Compound: Nc1c(/N=N/c2ccc(-c3ccc(/N=N/c4cc(S(=O)(=O)O)c5ccccc5c4N)cc3)cc2)cc(S(=O)(=O)O)c2ccccc12 [congo red, reference compound]
- IC50 at 7 days [1]: 27.4 µM
- IC50 at 3 days [2]: 36.4 µM

Compound: C=CC(C)(C)c1cc(/C=C/C(=O)c2ccc(O)cc2)c(OC)cc1O [licochalcone A, reference compound]
- IC50 at 7 days ([1]; uninduced retinoic acid‐differentiated SH‐SY5Y cells, 7 days treatment, read-out: IC50 (MTT cytotoxicity)): 5.8 µM
- IC50 at 3 days ([2]; uninduced Tet-On ∆K280 TauRD-DsRed 293 cells, uninduced 293 cells, 3 days treatment, read-out: IC50 (MTT cytotoxicity)): 7 µM

Compound: O=C(c1ccccc1)c1cc2c(O)cccc2oc1=O [LM‐031, 3‐benzoyl‐5‐hydroxychromen‐2‐one]
- IC50 at 7 days [1]: 6.8 µM
- IC50 at 3 days [2]: 55.9 µM

Compound: COc1ccc(C(=O)/C=C/c2cc(Br)ccc2O)cc1 [LM‐004]
- IC50 at 7 days [1]: 4.8 µM
- IC50 at 3 days [2]: 6.4 µM
